Results as given in patent publication US8822413B2, “Bifunctional hormone having alpha-MSH activity and natriuretic peptide activity and uses thereof” (Theratechnologies Inc., priority 2007, dated 2014).
Bridge positions count the residues as written; N and C are the ends. Square brackets hold non-standard residues; d marks the D form. Peptide text beside a SMILES is read from it. Nle = CCCC[C@H](N)C(=O)O

molecular target: T1, ANP receptor (Sus scrofa, UniProt F1SFW3); test: cGMP production in ANP receptor-expressing LLC-PK1 cells; assay type: cell-based; details: 30 min stimulation, 10^-6M through 10^-12M
T1 construct: ANP receptor-expressing LLC-PK1 cells; endogenous in cells; host or cells: LLC-PK1 cells
T1 sequence (F1SFW3 29-1057): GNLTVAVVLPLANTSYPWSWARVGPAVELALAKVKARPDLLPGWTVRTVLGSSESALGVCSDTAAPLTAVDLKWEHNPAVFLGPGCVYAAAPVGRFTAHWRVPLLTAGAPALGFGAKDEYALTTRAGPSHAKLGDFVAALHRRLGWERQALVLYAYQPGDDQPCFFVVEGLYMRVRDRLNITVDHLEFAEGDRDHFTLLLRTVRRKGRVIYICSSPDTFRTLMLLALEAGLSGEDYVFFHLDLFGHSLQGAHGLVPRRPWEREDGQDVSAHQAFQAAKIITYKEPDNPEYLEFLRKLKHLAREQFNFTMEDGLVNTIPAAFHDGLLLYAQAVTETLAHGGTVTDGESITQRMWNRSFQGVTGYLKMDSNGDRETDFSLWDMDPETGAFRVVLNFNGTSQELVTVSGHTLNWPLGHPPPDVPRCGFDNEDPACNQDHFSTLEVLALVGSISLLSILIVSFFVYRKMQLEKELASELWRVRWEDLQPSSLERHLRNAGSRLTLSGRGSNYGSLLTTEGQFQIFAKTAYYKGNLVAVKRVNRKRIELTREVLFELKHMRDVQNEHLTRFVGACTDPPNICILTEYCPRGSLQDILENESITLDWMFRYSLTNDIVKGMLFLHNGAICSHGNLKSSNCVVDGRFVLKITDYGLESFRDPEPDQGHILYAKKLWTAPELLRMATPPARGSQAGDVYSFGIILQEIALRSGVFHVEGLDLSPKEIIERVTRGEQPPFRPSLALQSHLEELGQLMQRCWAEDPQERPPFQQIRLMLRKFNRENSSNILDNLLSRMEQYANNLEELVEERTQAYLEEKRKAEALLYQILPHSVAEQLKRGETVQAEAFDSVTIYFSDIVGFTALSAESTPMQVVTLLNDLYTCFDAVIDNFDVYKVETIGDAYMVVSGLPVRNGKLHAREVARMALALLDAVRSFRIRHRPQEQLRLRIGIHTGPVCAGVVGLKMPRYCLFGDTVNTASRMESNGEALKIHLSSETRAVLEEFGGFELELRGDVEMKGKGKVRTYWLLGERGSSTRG
Method: The bifunctional hormone was tested on ANP receptor-expressing LLC-PK1 cells and on MCR1 receptor-expressing B16-F1 cells. Both cell types were cultured 24 hours before the stimulation, in 96-well plates, at a concentration of 1.0×10^5 cells/ml. Before stimulation, cells were starved 2 hours in DPBS only and incubated 10 min in assay buffer (DPBS containing 20 mM HEPES, 0.1% BSA and 500 μM IBMX). The dose response curve of the bifunctional hormone was done for 30 minutes with concentrations of 10^−6M through 10^−12M. Supernatant was collected and cAMP (B16-F1) or cGMP (LLC-PK1) was measured with a radiolabeled kit from GE Healthcare Company.

| EC50 [nM] | Structure (SMILES) |
| --- | --- |
| 1430 | CCCC[C@@H]1NC(=O)[C@H](CCCNC(=N)N)NC(=O)CNC(=O)CNC(=O)[C@H](Cc2ccccc2)NC(=O)[C@H](Cc2c[nH]cn2)NC(=O)[C@@H](NC(=O)[C@@H](N)CCCC)CCC(=O)NCCCC[C@@H](C(=O)N[C@@H](Cc2ccc(O)cc2)C(=O)N[C@@H](CCCNC(=N)N)C(=O)N[C@@H](Cc2c[nH]cn2)C(=O)N[C@H](Cc2ccccc2)C(=O)N[C@@H](CCCNC(=N)N)C(=O)N[C@@H](Cc2c[nH]c3ccccc23)C(N)=O)NC(=O)[C@H](CO)NC(=O)[C@H]([C@@H](C)CC)NC(=O)[C@H](CCCNC(=N)N)NC(=O)[C@H](CC(=O)O)NC1=O [SEQ ID NO: 29, Nle-[E-H-F-G-G-R-Nle-D-R-I-S-K]-Y-R-H-f-R-W-NH2] (H-[Nle]EHFGGR[Nle]DRISKYRH[dF]RW-NH2; lactam 2-13) |
| 7000 | CC[C@H](C)[C@@H]1NC(=O)[C@H](CCCNC(=N)N)NC(=O)[C@H](CC(=O)O)NC(=O)[C@H](CCSC)NC(=O)[C@H](CCCNC(=N)N)NC(=O)CNC(=O)CNC(=O)[C@H](Cc2ccccc2)NC(=O)[C@@H](NC(=O)[C@H](CO)NC(=O)[C@H](CO)NC(=O)[C@H](CCCNC(=N)N)NC(=O)[C@H](CCCNC(=N)N)NC(=O)[C@H](CC(C)C)NC(=O)[C@@H](N)CO)CSSC[C@@H](C(=O)N[C@@H](CC(N)=O)C(=O)N[C@@H](CO)C(=O)N[C@@H](Cc2ccccc2)C(=O)N[C@@H](CCCNC(=N)N)C(=O)N[C@@H](Cc2ccc(O)cc2)C(=O)N[C@@H](Cc2c[nH]cn2)C(=O)N[C@H](Cc2ccccc2)C(=O)N[C@@H](CCCNC(=N)N)C(=O)N[C@@H](Cc2c[nH]c3ccccc23)C(N)=O)NC(=O)CNC(=O)[C@H](CC(C)C)NC(=O)CNC(=O)[C@H](CO)NC(=O)[C@H](CCC(N)=O)NC(=O)[C@H](C)NC(=O)CNC1=O [SEQ ID NO: 40, S-L-R-R-S-S-[C-F-G-G-R-M-D-R-I-G-A-Q-S-G-L-G-C]-N-S-F-R-Y-H-f-R-W-NH2] |

same assay, conditions: 30 min stimulation, 10^-6M through 10^-12M, NR = No response detected

| EC50 [nM] | Structure (SMILES) |
| --- | --- |
| 74.3 | CC[C@H](C)[C@@H]1NC(=O)[C@H](CCCNC(=N)N)NC(=O)[C@H](CC(=O)O)NC(=O)[C@H](CCSC)NC(=O)[C@H](CCCNC(=N)N)NC(=O)CNC(=O)CNC(=O)[C@H](Cc2ccccc2)NC(=O)[C@H](Cc2c[nH]cn2)NC(=O)[C@@H](NC(=O)[C@H](CCSC)NC(=O)[C@@H]2CCCN2C(=O)[C@H](CCCCN)NC(=O)CNC(=O)[C@H](Cc2c[nH]c3ccccc23)NC(=O)[C@H](CCCNC(=N)N)NC(=O)[C@@H](Cc2ccccc2)NC(=O)[C@H](Cc2c[nH]cn2)NC(C)=O)CSSC[C@@H](C(=O)N[C@@H](Cc2ccc(O)cc2)C(=O)N[C@@H](CCCNC(=N)N)C(N)=O)NC(=O)[C@H](CO)NC1=O [SEQ ID NO: 31, Ac-H-f-R-W-G-K-P-M-[C-H-F-G-G-R-M-D-R-I-S-C]-Y-R-NH2] (Ac-H[dF]RWGKPMCHFGGRMDRISCYR-NH2; disulfide 9-20) |
| 132 | CCCC[C@@H]1NC(=O)[C@H](CCCNC(=N)N)NC(=O)CNC(=O)CNC(=O)[C@H](Cc2ccccc2)NC(=O)[C@H](Cc2c[nH]cn2)NC(=O)[C@@H](NC(=O)[C@H](CCCC)NC(=O)[C@@H]2CCCN2C(=O)[C@H](CCCCN)NC(=O)CNC(=O)[C@H](Cc2c[nH]c3ccccc23)NC(=O)[C@H](CCCNC(=N)N)NC(=O)[C@@H](Cc2ccccc2)NC(=O)[C@H](Cc2c[nH]cn2)NC(C)=O)CSSC[C@@H](C(=O)N[C@@H](Cc2ccc(O)cc2)C(=O)N[C@@H](CCCNC(=N)N)C(N)=O)NC(=O)[C@H](CO)NC(=O)[C@H]([C@@H](C)CC)NC(=O)[C@H](CCCNC(=N)N)NC(=O)[C@H](CC(=O)O)NC1=O [SEQ ID NO: 34, Ac-H-f-R-W-G-K-P-Nle-[C-H-F-G-G-R-Nle-D-R-I-S-C]-Y-R-NH2] (Ac-H[dF]RWGKP[Nle]CHFGGR[Nle]DRISCYR-NH2; disulfide 9-20) |
| 216 | CCCC[C@@H]1NC(=O)[C@H](CCCNC(=N)N)NC(=O)CNC(=O)CNC(=O)[C@H](Cc2ccccc2)NC(=O)[C@@H](NC(=O)[C@H](CCCC)NC(=O)[C@@H]2CCCN2C(=O)[C@H](CCCCN)NC(=O)CNC(=O)[C@H](Cc2c[nH]c3ccccc23)NC(=O)[C@H](CCCNC(=N)N)NC(=O)[C@@H](Cc2ccccc2)NC(=O)[C@H](Cc2c[nH]cn2)NC(C)=O)CSSC[C@@H](C(=O)N[C@@H](CC(N)=O)C(=O)N[C@@H](CO)C(=O)N[C@@H](Cc2ccccc2)C(=O)N[C@@H](CCCNC(=N)N)C(=O)N[C@@H](Cc2ccc(O)cc2)C(N)=O)NC(=O)CNC(=O)[C@H](CC(C)C)NC(=O)CNC(=O)[C@H](CO)NC(=O)[C@H](CCC(N)=O)NC(=O)[C@H](C)NC(=O)CNC(=O)[C@H]([C@@H](C)CC)NC(=O)[C@H](CCCNC(=N)N)NC(=O)[C@H](CC(=O)O)NC1=O [SEQ ID NO: 35, Ac-H-f-R-W-G-K-P-Nle-[C-F-G-G-R-Nle-D-R-I-G-A-Q-S-G-L-G-C]-N-S-F-R-Y-NH2] (Ac-H[dF]RWGKP[Nle]CFGGR[Nle]DRIGAQSGLGCNSFRY-NH2; disulfide 9-25) |
| 33.1 | CC[C@H](C)[C@@H]1NC(=O)[C@H](CCCNC(=N)N)NC(=O)[C@H](CC(=O)O)NC(=O)[C@H](CCSC)NC(=O)[C@H](CCCNC(=N)N)NC(=O)CNC(=O)CNC(=O)[C@H](Cc2ccccc2)NC(=O)[C@@H](NC(=O)[C@H](CO)NC(=O)[C@H](CO)NC(=O)[C@H](CCCNC(=N)N)NC(=O)[C@H](CCCNC(=N)N)NC(=O)CNC(=O)[C@H](Cc2c[nH]c3ccccc23)NC(=O)[C@H](CCCNC(=N)N)NC(=O)[C@H](Cc2ccccc2)NC(=O)[C@H](Cc2c[nH]cn2)NC(=O)[C@H](CCC(=O)O)NC(=O)[C@@H](N)CCSC)CSSC[C@@H](C(=O)N[C@@H](CC(N)=O)C(=O)N[C@@H](CO)C(=O)N[C@@H](Cc2ccccc2)C(=O)N[C@@H](CCCNC(=N)N)C(=O)N[C@@H](Cc2ccc(O)cc2)C(N)=O)NC(=O)CNC(=O)[C@H](CC(C)C)NC(=O)CNC(=O)[C@H](CO)NC(=O)[C@H](CCC(N)=O)NC(=O)[C@H](C)NC(=O)CNC1=O [SEQ ID NO: 36, M-E-H-F-R-W-G-R-R-S-S-[C-F-G-G-R-M-D-R-I-G-A-Q-S-G-L-G-C]-N-S-F-R-Y-NH2] (H-MEHFRWGRRSSCFGGRMDRIGAQSGLGCNSFRY-NH2; disulfide 12-28) |
| 6.9 | CC[C@H](C)[C@@H]1NC(=O)[C@H](CCCNC(=N)N)NC(=O)[C@H](CC(=O)O)NC(=O)[C@H](CCSC)NC(=O)[C@H](CCCNC(=N)N)NC(=O)CNC(=O)CNC(=O)[C@H](Cc2ccccc2)NC(=O)[C@@H](NC(=O)[C@H](CO)NC(=O)[C@H](CO)NC(=O)[C@H](CCCNC(=N)N)NC(=O)[C@H](CCCNC(=N)N)NC(=O)CNC(=O)[C@H](Cc2c[nH]c3ccccc23)NC(=O)[C@H](CCCNC(=N)N)NC(=O)[C@H](Cc2ccccc2)NC(=O)[C@H](Cc2c[nH]cn2)NC(C)=O)CSSC[C@@H](C(=O)N[C@@H](CC(N)=O)C(=O)N[C@@H](CO)C(=O)N[C@@H](Cc2ccccc2)C(=O)N[C@@H](CCCNC(=N)N)C(=O)N[C@@H](Cc2ccc(O)cc2)C(N)=O)NC(=O)CNC(=O)[C@H](CC(C)C)NC(=O)CNC(=O)[C@H](CO)NC(=O)[C@H](CCC(N)=O)NC(=O)[C@H](C)NC(=O)CNC1=O [SEQ ID NO: 38, Ac-H-F-R-W-G-R-R-S-S-[C-F-G-G-R-M-D-R-I-G-A-Q-S-G-L-G-C]-N-S-F-R-Y-NH2] (Ac-HFRWGRRSSCFGGRMDRIGAQSGLGCNSFRY-NH2; disulfide 10-26) |
| 52.1 | CC[C@H](C)[C@@H]1NC(=O)[C@H](CCCNC(=N)N)NC(=O)[C@H](CC(=O)O)NC(=O)[C@H](CCSC)NC(=O)[C@H](CCCNC(=N)N)NC(=O)CNC(=O)CNC(=O)[C@H](Cc2ccccc2)NC(=O)[C@@H](NC(=O)[C@H](CO)NC(=O)[C@H](CO)NC(=O)[C@H](CCCNC(=N)N)NC(=O)[C@H](CCCNC(=N)N)NC(=O)CNC(=O)[C@H](Cc2c[nH]c3ccccc23)NC(=O)[C@H](CCCNC(=N)N)NC(=O)[C@@H](Cc2ccccc2)NC(=O)[C@H](Cc2c[nH]cn2)NC(C)=O)CSSC[C@@H](C(=O)N[C@@H](CC(N)=O)C(=O)N[C@@H](CO)C(=O)N[C@@H](Cc2ccccc2)C(=O)N[C@@H](CCCNC(=N)N)C(=O)N[C@@H](Cc2ccc(O)cc2)C(N)=O)NC(=O)CNC(=O)[C@H](CC(C)C)NC(=O)CNC(=O)[C@H](CO)NC(=O)[C@H](CCC(N)=O)NC(=O)[C@H](C)NC(=O)CNC1=O [SEQ ID NO: 39, Ac-H-f-R-W-G-R-R-S-S-[C-F-G-G-R-M-D-R-I-G-A-Q-S-G-L-G-C]-N-S-F-R-Y-NH2] (Ac-H[dF]RWGRRSSCFGGRMDRIGAQSGLGCNSFRY-NH2; disulfide 10-26) |
